Results as given in publication PMC6540285, “Evaluation of Protein Kinase Inhibitors with PLK4 Cross-Over Potential in a Pre-Clinical Model of Cancer” (International Journal of Molecular Sciences, 2019).

What was measured:
CDK11/cyclin C = CDK11/cyclin C (Homo sapiens, UniProt Q9BWU1); assay: SelectScreen kinase profiling, LanthaScreen binding
PIK3C2A (PI3K-C2 alpha) = PIK3C2A (PI3K-C2 alpha) (Homo sapiens, UniProt O00443); assay: SelectScreen kinase profiling, Adapta; format: biochemical
MAP2K1 (MEK1) = MAP2K1 (MEK1) (Homo sapiens, UniProt Q02750); assay: SelectScreen kinase profiling, LanthaScreen binding
JAK3 = JAK3 (Homo sapiens, UniProt P52333); assay: SelectScreen kinase profiling, ZLYTE; format: biochemical; details: JAK3, 10 µM
MST4 = MST4 (Homo sapiens, UniProt Q9P289); assay: SelectScreen kinase profiling, ZLYTE; format: biochemical; details: MST4, 10 µM
PRKCB2 (PKC beta II) = PRKCB2 (PKC beta II) (Homo sapiens, UniProt P05771); assay: SelectScreen kinase profiling, ZLYTE; format: biochemical
[1] = biological target: CSNK1E (CK1 epsilon) R178C (Homo sapiens, UniProt P49674, R178C); assay: SelectScreen kinase profiling, ZLYTE; format: biochemical
MAPK14 (p38 alpha) = MAPK14 (p38 alpha) (Homo sapiens, UniProt Q16539); assay: SelectScreen kinase profiling, ZLYTE; format: biochemical
LATS2 = LATS2 (Homo sapiens, UniProt Q9NRM7); assay: SelectScreen kinase profiling, LanthaScreen binding; details: LATS2, 10 µM
CDK4/cyclin D3 = CDK4/cyclin D3 (Homo sapiens, UniProt P11802); assay: SelectScreen kinase profiling, Adapta; format: biochemical; details: CDK4/cyclin D3, 10 µM
RPS6KA6 (RSK4) = RPS6KA6 (RSK4) (Homo sapiens, UniProt Q9UK32); assay: SelectScreen kinase profiling, ZLYTE; format: biochemical
BMPR1A (ALK3) = BMPR1A (ALK3) (Homo sapiens, UniProt P36894); assay: SelectScreen kinase profiling, LanthaScreen binding
P450 2B6 = P450 2B6 (Homo sapiens, UniProt P20813)
CHUK (IKK alpha) = CHUK (IKK alpha) (Homo sapiens, UniProt O15111); assay: SelectScreen kinase profiling, Adapta; format: biochemical
ULK3 = ULK3 (Homo sapiens, UniProt Q6PHR2); assay: SelectScreen kinase profiling, LanthaScreen binding; details: ULK3, 10 µM
FRK (PTK5) = FRK (PTK5) (Homo sapiens, UniProt P42685); assay: SelectScreen kinase profiling, ZLYTE; format: biochemical
FGFR3 K650E = FGFR3 K650E (Homo sapiens, UniProt P22607, K650E); assay: SelectScreen kinase profiling, ZLYTE; format: biochemical
ABL1 E255K = ABL1 E255K (Homo sapiens, UniProt P00519, E255K); assay: SelectScreen kinase profiling, ZLYTE; format: biochemical
[2] = biological target: PIK3CA/PIK3R3 (p110 alpha/p55 gamma) (Homo sapiens, UniProt P42336); assay: SelectScreen kinase profiling, Adapta; format: biochemical; details: PIK3CA/PIK3R3, 10 µM
CAMKK2 (CaMKK beta) = CAMKK2 (CaMKK beta) (Homo sapiens, UniProt Q96RR4); assay: SelectScreen kinase profiling, LanthaScreen binding
NTRK2 (TRKB) = NTRK2 (TRKB) (Homo sapiens, UniProt Q16620); assay: SelectScreen kinase profiling, ZLYTE; format: biochemical
TESK1 = TESK1 (Homo sapiens, UniProt Q15569); assay: SelectScreen kinase profiling, LanthaScreen binding; details: TESK1, 10 µM
Source text: Kinase Technology % Inhibition Avg Kinase Technology % Inhibition Avg […]
TESK1 LanthaScreen 37 ZAP70 ZLYTE 24
cleavage (Thermo Fisher Scientific, USA)

NEK8 = NEK8 (Homo sapiens, UniProt Q86SG6); assay: as above; details: NEK8, 10 µM
RT and MB cells = assay: Clonogenic colony formation assay; format: cell-based; details: 1µM
Procedure: All cell lines were seeded at 200 cells per well in six-well plates and incubated overnight. After 24 h, the treatment medium was added and changed once a week. Cells were treated with 0.01, 0.05, 0.1, 0.2, 0.5, 1, 5, and 10 µM of PLK4i and 0.1% DMSO as control. After 14 days, the cells were washed twice with 1x PBS, fixed with formalin, and stained with Cresyl violet (ACROS Organics, Pittsburgh, PA, USA). Colonies were counted using the ImageJ software (www.imagej.nih.gov, accessed on April 21, 2017).

MON cells = assay: PrestoBlue Cell Viability assay; format: cell-based; details: read-out: PB: IC50 of the PrestoBlue Viability assay
Procedure: (§1) Cell viability was assessed using the Presto Blue™ Cell Viability reagent (Thermo Fisher Scientific, Carlsbad, CA, USA) following the manufacturer’s instructions. Cells were plated in 96-well plates at the same densities described above for the proliferation assay. The fluorescence was measured after 24, 48, 72, and 96 h at concentrations ranging from 0.001 to 10 µM of the inhibitor. All assays were performed in triplicate.

BT-16 cells = assay: PrestoBlue Cell Viability assay; format: cell-based; details: BT-16, read-out: PB: IC50 of the PrestoBlue Viability assay
Procedure: as §1

D283 cells = assay: PrestoBlue Cell Viability assay; format: cell-based; details: D283, read-out: PB: IC50 of the PrestoBlue Viability assay
Procedure: as §1

HIPK4 = HIPK4 (Homo sapiens, UniProt Q8NE63); assay: SelectScreen kinase profiling, ZLYTE; format: biochemical; details: HIPK4, 10 µM
STK22B (TSSK2) = STK22B (TSSK2) (Homo sapiens, UniProt Q96PF2); assay: SelectScreen kinase profiling, ZLYTE; format: biochemical
PIP5K1A = PIP5K1A (Homo sapiens, UniProt Q99755); assay: SelectScreen kinase profiling, Adapta; format: biochemical
ERN2 = ERN2 (Homo sapiens, UniProt Q76MJ5); assay: SelectScreen kinase profiling, LanthaScreen binding; details: ERN2, 10 µM
MAP3K14 (NIK) = MAP3K14 (NIK) (Homo sapiens, UniProt Q99558); assay: as above
STK17A (DRAK1) = STK17A (DRAK1) (Homo sapiens, UniProt Q9UEE5); assay: as above
EPHA1 = EPHA1 (Homo sapiens, UniProt P21709); assay: SelectScreen kinase profiling, ZLYTE; format: biochemical; details: EPHA1, 10 µM

Sequence of STK22B (TSSK2) (Q96PF2 whole entry): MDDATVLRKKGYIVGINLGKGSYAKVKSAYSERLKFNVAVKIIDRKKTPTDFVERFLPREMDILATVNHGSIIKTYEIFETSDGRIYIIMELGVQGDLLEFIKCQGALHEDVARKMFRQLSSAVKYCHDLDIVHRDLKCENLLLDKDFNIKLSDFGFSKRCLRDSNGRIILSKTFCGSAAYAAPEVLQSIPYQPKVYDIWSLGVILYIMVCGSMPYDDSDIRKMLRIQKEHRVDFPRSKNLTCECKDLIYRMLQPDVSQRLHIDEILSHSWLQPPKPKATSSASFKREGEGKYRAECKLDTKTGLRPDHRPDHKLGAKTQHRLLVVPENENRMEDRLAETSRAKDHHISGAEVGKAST
Sequence of HIPK4 (Q8NE63 whole entry): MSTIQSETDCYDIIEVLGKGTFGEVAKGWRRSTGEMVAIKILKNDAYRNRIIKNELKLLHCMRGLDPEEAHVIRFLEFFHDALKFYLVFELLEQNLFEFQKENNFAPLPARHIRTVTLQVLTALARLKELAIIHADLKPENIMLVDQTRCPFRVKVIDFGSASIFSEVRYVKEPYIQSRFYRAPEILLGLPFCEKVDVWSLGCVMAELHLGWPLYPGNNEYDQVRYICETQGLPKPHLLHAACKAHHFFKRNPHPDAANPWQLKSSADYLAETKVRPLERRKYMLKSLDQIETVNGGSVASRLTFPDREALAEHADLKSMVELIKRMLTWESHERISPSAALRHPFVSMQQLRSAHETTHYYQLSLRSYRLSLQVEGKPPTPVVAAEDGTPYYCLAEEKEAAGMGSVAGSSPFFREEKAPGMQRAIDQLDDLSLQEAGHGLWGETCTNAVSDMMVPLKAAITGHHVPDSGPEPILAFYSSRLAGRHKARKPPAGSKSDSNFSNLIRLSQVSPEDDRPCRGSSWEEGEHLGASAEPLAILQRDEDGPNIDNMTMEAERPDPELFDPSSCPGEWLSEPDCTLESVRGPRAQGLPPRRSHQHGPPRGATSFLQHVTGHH
Sequence of NTRK2 (TRKB) (Q16620 32-822): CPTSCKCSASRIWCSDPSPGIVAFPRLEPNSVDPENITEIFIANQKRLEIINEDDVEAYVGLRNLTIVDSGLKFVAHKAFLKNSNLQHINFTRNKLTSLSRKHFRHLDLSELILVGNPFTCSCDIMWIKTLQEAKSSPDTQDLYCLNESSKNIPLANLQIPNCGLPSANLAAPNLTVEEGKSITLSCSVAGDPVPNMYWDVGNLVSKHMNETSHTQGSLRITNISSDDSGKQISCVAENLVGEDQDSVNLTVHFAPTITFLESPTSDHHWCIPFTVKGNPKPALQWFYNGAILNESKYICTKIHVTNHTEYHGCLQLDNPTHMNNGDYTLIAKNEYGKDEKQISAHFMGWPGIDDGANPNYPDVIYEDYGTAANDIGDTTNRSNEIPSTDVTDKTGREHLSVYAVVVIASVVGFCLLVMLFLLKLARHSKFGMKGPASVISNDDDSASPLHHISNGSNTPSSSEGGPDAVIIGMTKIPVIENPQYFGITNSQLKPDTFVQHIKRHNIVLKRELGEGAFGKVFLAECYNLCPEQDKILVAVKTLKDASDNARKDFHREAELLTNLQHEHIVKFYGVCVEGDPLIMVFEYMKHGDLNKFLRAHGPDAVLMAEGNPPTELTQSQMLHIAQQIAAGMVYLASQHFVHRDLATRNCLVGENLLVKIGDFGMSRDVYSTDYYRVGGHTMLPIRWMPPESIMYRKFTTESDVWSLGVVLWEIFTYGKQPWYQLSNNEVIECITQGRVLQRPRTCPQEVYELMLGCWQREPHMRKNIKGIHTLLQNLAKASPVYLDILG
Sequence of CSNK1E (CK1 epsilon) R178C (P49674 whole entry R178C): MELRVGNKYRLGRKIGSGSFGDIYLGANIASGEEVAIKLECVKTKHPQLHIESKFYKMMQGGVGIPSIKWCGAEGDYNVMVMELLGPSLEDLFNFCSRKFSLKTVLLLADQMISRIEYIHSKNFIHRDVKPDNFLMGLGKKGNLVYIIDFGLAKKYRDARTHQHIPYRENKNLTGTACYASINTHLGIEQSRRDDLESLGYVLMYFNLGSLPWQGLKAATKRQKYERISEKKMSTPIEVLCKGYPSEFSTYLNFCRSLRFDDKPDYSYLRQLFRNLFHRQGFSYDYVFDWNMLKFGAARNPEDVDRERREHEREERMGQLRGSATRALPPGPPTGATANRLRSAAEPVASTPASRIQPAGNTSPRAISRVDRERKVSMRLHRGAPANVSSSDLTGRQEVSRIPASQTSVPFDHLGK
Sequence of JAK3 (P52333 whole entry): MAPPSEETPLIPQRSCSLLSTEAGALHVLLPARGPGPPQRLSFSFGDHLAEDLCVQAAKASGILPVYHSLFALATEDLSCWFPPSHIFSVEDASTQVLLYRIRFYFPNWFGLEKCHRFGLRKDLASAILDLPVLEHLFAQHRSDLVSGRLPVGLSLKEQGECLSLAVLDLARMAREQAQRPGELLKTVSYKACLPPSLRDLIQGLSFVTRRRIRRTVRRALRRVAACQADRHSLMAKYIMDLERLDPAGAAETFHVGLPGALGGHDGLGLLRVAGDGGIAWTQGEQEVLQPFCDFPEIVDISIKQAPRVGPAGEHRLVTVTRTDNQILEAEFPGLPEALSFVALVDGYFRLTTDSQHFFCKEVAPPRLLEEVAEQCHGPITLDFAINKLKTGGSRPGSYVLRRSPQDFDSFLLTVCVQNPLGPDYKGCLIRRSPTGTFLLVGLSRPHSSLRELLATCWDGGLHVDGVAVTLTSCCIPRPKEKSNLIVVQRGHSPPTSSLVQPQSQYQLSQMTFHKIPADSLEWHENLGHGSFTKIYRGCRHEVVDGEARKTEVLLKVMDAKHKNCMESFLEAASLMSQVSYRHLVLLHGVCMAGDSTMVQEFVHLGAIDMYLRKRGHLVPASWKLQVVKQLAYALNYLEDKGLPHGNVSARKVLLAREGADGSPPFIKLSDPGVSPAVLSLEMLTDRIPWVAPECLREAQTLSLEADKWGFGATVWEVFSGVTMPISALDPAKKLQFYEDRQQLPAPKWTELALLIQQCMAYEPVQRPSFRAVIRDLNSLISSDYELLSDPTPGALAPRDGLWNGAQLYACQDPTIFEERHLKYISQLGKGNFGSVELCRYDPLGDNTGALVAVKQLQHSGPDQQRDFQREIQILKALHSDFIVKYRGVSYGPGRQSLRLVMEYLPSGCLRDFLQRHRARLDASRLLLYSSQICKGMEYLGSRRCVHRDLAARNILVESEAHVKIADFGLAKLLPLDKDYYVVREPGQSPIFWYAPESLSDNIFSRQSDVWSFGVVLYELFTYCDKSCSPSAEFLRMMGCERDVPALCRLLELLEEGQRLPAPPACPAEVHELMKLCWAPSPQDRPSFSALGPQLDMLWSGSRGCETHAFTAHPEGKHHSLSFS
Sequence of P450 2B6 (P20813 whole entry): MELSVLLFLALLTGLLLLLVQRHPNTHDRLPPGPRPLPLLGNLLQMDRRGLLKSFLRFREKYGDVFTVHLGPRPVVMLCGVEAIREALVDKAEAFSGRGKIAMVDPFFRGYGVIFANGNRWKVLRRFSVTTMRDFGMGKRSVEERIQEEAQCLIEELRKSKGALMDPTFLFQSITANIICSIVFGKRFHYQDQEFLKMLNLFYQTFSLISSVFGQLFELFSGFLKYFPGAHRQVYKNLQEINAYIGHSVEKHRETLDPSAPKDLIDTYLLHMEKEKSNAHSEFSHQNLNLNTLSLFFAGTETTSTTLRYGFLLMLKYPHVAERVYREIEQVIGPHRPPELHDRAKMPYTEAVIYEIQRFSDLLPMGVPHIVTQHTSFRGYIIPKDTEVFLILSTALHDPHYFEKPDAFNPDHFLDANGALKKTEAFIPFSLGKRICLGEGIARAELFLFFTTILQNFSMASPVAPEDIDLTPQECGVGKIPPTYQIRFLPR
Sequence of CDK11/cyclin C (Q9BWU1 whole entry): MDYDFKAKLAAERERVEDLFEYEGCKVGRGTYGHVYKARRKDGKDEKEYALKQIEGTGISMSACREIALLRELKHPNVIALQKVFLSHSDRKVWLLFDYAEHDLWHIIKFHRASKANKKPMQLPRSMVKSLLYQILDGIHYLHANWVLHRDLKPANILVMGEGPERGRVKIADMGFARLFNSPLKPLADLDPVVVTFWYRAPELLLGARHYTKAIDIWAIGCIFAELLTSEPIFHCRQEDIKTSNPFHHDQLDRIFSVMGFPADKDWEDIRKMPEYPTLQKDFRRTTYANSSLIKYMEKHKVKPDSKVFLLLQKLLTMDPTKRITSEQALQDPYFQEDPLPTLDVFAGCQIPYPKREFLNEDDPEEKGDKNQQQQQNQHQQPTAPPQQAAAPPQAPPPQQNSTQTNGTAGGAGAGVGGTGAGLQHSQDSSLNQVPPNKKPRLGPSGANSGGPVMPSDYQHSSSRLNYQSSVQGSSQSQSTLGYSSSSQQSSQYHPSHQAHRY
Sequence of CDK11/cyclin C (P24863 whole entry partner): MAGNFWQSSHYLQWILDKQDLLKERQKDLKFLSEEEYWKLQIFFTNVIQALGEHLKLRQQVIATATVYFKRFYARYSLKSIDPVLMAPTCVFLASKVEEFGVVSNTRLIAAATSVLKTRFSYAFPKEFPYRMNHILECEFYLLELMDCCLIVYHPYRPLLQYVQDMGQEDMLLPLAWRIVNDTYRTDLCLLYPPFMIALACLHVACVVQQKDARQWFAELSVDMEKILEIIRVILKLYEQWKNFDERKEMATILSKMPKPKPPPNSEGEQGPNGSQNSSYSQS
Sequence of MAP2K1 (MEK1) (Q02750 whole entry): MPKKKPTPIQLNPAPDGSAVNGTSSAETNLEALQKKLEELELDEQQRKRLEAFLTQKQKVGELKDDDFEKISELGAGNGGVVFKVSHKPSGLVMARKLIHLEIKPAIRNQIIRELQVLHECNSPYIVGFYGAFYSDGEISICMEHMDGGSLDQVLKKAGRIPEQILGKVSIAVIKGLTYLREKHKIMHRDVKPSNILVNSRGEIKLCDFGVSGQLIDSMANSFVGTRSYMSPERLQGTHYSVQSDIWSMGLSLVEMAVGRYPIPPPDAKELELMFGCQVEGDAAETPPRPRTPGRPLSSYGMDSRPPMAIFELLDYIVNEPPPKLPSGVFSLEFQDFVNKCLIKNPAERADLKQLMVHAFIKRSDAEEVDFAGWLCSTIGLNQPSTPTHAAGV

Compound: O=C(c1ccc(/C=C/c2n[nH]c3ccccc23)cc1)N1CCNCC1 [KW-2449]
- inhibition at 10 µM (CDK11/cyclin C): 53%
- inhibition at 10 µM (PIK3C2A (PI3K-C2 alpha)): 4%
- inhibition at 10 µM (MAP2K1 (MEK1)): 54%
- inhibition at 10 µM (JAK3): 98%
- inhibition at 10 µM (MST4): 92%
- inhibition at 10 µM (PRKCB2 (PKC beta II)): 71%
- inhibition at 10 µM [1]: 71%
- inhibition at 10 µM (MAPK14 (p38 alpha)): 33%
- inhibition at 10 µM (LATS2): 68%
- inhibition at 10 µM (CDK4/cyclin D3): 83%
- inhibition at 10 µM (RPS6KA6 (RSK4)): 97%
- inhibition at 10 µM (BMPR1A (ALK3)): 98%
- IC50 (P450 2B6): 9800 nM
- inhibition at 10 µM (CHUK (IKK alpha)): 96%
- inhibition at 10 µM (ULK3): 5%
- inhibition at 10 µM (FRK (PTK5)): 90%
- inhibition at 10 µM (FGFR3 K650E): 97%
- inhibition at 10 µM (ABL1 E255K): 99%
- inhibition at 10 µM [2]: 4%
- inhibition at 10 µM (CAMKK2 (CaMKK beta)): 86%
- inhibition at 10 µM (NTRK2 (TRKB)): 99%
- inhibition at 10 µM (TESK1): 37%
- inhibition at 10 µM (NEK8): 30%
- colony formation (RT and MB cells): complete inhibition of colony formation in all cell lines except the MB cell line DAOY
- IC50 (MON cells): 1740 nM
- IC50 (BT-16 cells): 1840 nM
- IC50 (D283 cells): > 10000 nM
- inhibition at 10 µM (HIPK4): 85%
- inhibition at 10 µM (STK22B (TSSK2)): 74%
- inhibition at 10 µM (PIP5K1A): 16%
- inhibition at 10 µM (ERN2): 74%
- inhibition at 10 µM (MAP3K14 (NIK)): 90%
- inhibition at 10 µM (STK17A (DRAK1)): 85%
- inhibition at 10 µM (EPHA1): 99%
